Starred links: 1 amine or outer side, 2 acyl side, 3 side chain; linkers in the order of their positions; H or OH if unused. Non-standard residues stand in square brackets, D forms with d. Residues, ends and D or L forms follow the SMILES beside them. *: point of attachment. X1 = O=C([C@H]1CSC([C@@H](Cc2ccccc2)N[*:1])=N1)[*:2]; Allyl(1,1-Me2) = C=CC(C)(C)*
Tests used:
HIV integrase = conditions: cited from earlier work
[1] = cited from earlier work
[2] = tested on: adipocyte differentiation; conditions: cited from earlier work
[3] = biological target: wild-type HIV-1 integrase (Human immunodeficiency virus type 1 group M subtype B, UniProt P04585); format: biochemical; conditions: at 100 µg/mL
[4] = tested on: HIV-infected 1A2 cells (a subclone of CEM-SS TART cells); assay: Cytoprotective cell-based anti-HIV assay; conditions: at 78 µM

CC(C)C[C@@H]1NC(=O)[C@@H]2CCCN2C(=O)[C@H](C(C)C)NC(=O)c2csc(n2)CNC(=O)c2csc(n2)[C@H](CCC(N)=O)NC1=O [dolastatin 3]
HIV integrase inhibition activity (HIV integrase): HIV integrase inhibition activity

O=C(NCCc1ccccc1)NCCc1ccccc1 [N, N’-diphenethylurea]
Antidepressant action [1]: act as an antidepressant
Promotion of adipocyte differentiation [2]: promote adipocyte differentiation

O=C(NCCc1ccccc1)NCCc1ccccc1C(=O)NCCc1ccccc1 [Compound 3, Molleurea A]
HIV-1 integrase inhibition at single concentration [3]: no activity

C=CC(C)(C)O[C@H](C)[C@@H]1NC(=O)[C@H]2CSC(=N2)[C@@H](Cc2ccccc2)NC(=O)[C@@H]2CCCN2C(=O)[C@H](CO)NC(=O)[C@H](CC(C)C)NC1=O [Compound 1, Mollamide E] (cyclo(LSP[X1]T(Allyl(1,1-Me2))))
HIV inhibition in cytoprotective assay at single concentration [4]: did not show any inhibition
HIV-1 integrase inhibition at single concentration [3]: no activity

Source: PMC4176947 (Journal of natural products, 2012)
